Values of other authors in patent publication US20100303937A1, “NOVEL COMPOSITION TO INCREASE TESTOSTERONE LEVELS” (priority 2009, published 2010).

Settings: humans; prior art U.S. Pat. No. 5,880,117

C[C@]12CC[C@H]3[C@@H](CCC4=C[C@@H](O)CC[C@@]43C)[C@@H]1CC[C@@H]2O [4-androstene-3β, 17β-diol]
time within which concentration peaks after administration: ≤ 90 min
